Test results reported in patent US20240309004A1, “SELECTIVE CYCLIN-DEPENDENT KINASE INHIBITORS AND METHODS OF THERAPEUTIC USE THEREOF” (ViroKyne Therapeutics, LLC, priority 2021, published 2024).

Assays:
[1] = test system: HSV1 strain DM.2 - resistant isolate; experiment: HSV1 primary assay, resistant isolate DM.2, HFF cells; format: cell-based, Herpes Simplex Virus 1; details: Human alphaherpesvirus 1, HFF
Method: (§1) Assays were performed in monolayers as described. […] Toxicity was measured using CTG as above. […] Toxicity was measured using CTG as above.
(§2) Monolayers of HFF cells were prepared in six-well plates and incubated at 37° C. for 2 d to allow the cells to reach confluency. Media was then aspirated from the wells and 0.2 mL of virus-containing solution was added to each of three wells to yield 20-30 plaques in each well. The virus was allowed to adsorb to the cells for 1 h and the plates were agitated every 15 minutes. Compounds were diluted in assay media consisting of MEM with Earl's salts supplemented with 2% FBS, glutamine, penicillin, and gentamycin. Diluted drug was added to duplicate wells and the plates were incubated for various times, depending on the virus used. For HSV-1 and -2, the monolayers were then stained with 1% crystal violet in 20% methanol and the unbound dye removed by washing with dH20. For all other assays, the cell monolayer was stained with 1% Neutral Red solution for 4-6 h then the stain was aspirated and the cells were washed with PBS.

HSV2 strain G = experiment: HSV2 primary assay, strain G, HFF cells; format: cell-based, herpes simplex virus 2; details: Human alphaherpesvirus 2, HSV2 primary assay, strain G, HFF cells; for EC50: read-out: EC50
Method: as §1, §2

HSV1 strain E-377 = experiment: HSV1 primary assay, strain E-377, HFF cells; format: cell-based, Herpes Simplex Virus 1; details: Human alphaherpesvirus 1, HSV1 primary assay, strain E-377, HFF cells; for EC50: read-out: EC50
Method: as §1, §2

VZV strain Ellen = experiment: VZV primary assay, strain Ellen, HFF cells; format: cell-based, Varicella Zoster Virus; details: Human alphaherpesvirus 3, VZV primary assay, strain Ellen, cell line HFF; for EC50: read-out: EC50; for EC90: read-out: EC90
Method: as §1, §2

[2] = test system: HCMV strain GDGr K17 - resistant isolate; experiment: HCMV primary assay, resistant isolate GDGr K17, HFF cells; format: cell-based, Human Cytomegalovirus; details: Human betaherpesvirus 5, HFF
Method: as §1

Murine CMV strain Smith [3] = experiment: Murine CMV secondary assay, strain Smith, MEF cells; format: cell-based, Mouse Cytomegalovirus
Method: (§3) Compounds that were positive in the CPE assay were confirmed in a similar assay in 96-well plates according to established laboratory protocols with the compounds added 1 h post infection […]. Additionally, 12 1:3 dilutions were done instead of 6 1:5 dilutions for added accuracy. Genome copy number was determined by qPCR using primers 5′-[…]-3′, 5′ […]-3′, and probe 5′-[…]-3′.

[4] = Cytotoxicity concurrent with HCMV secondary assay; format: cell-based; details: human
Method: (§4) Monolayers of HFF cells were prepared in 96-well plates and incubated at 37° C. for 1 d to allow the cells to reach confluency. Media was then aspirated from the wells and cells infected at a high MOI. At 1 h following infection, the inocula were removed and the monolayers rinsed with fresh media. […] Drug dilutions were added to the wells and the plates were incubated for various times, depending on the virus used and represents a single replication cycle for the virus. A duplicate set of dilutions were also performed but remained uninfected to serve as a cytotoxicity control and received equal compound exposure. Supernatants from each of the infected wells were subsequently titered using CTG in a TCID50 assay to quantify the progeny virus. For HCMV only, viral yield in the supernatants from the infected cells were titered using qPCR with HCMV primers [NT], and probe [NT].

[5] = Cytotoxicity concurrent with HCMV AD169 primary assay; format: cell-based, human; details: human, CC50
Murine CMV strain Smith [6] = experiment: Murine CMV primary assay, strain Smith, MEF cells; format: cell-based, Mouse Cytomegalovirus
HCMV strain AD169 [7] = experiment: HCMV primary assay (CPE), strain AD169, HFF cells; format: cell-based, Human Cytomegalovirus; details: Human betaherpesvirus 5, HCMV primary assay, virus strain AD169, HFF cells; for EC50: read-out: EC50; for EC90: read-out: EC90
Method: The antiviral activity of the compound against HCMV in the described Primary assay was measured by treating primary Human foreskin fibroblast (HFF) cells infected with HCMV with a range of compound concentrations—description of methods for this assay can be found in section 1.3.2.1. […] . Additional tested assay parameters in this Primary assay can be found in Table 3.2.1 and include EC90, S150, and S190 values—descriptions of those data points can be found in section 3.2.1.

HCMV strain AD169 [8] = experiment: HCMV secondary assay (yield reduction), strain AD169, HFF cells; format: cell-based, Human Cytomegalovirus; details: Human betaherpesvirus 5, virus strain AD169, HFF cells
Method: as §4

MEF cells = experiment: Cytotoxicity concurrent with Murine CMV secondary assay; format: cell-based, mouse
Method: as §3

[9] = Cytotoxicity concurrent with VZV Ellen primary assay; format: cell-based; details: human
Method: as §1

[10] = test system: Adenovirus Adenoid75 strain; experiment: Adenovirus primary assay, Adenoid75 strain, HFF cells; format: cell-based; details: unidentified adenovirus, Adenovirus primary assay, HFF cells, Adenoid75 strain
[11] = Cytotoxicity concurrent with Adenovirus secondary assay; format: cell-based; details: human, uninfected HFF cell monolayers; Adeno secondary assay, HFF cells
Method: as §4

[12] = Cytotoxicity concurrent with HSV1 E-377 primary assay; format: cell-based; details: human
Method: as §1

[13] = Cytotoxicity concurrent with Adenovirus primary assay; format: cell-based; details: human
[14] = test system: Adenovirus Adenoid75 strain; experiment: Adenovirus secondary assay (yield reduction), Adenoid75 strain, HFF cells; format: cell-based; details: unidentified adenovirus; Adeno secondary assay, strain Adenoid75, HFF cells; read-out: EC90
Method: as §4

[15] = Cytotoxicity concurrent with HSV2 primary assay; format: cell-based; details: human
Method: as §1

[16] = test system: Epstein-Barr virus Akata strain; experiment: Epstein-Barr primary assay, Akata strain, Akata cells; format: cell-based; details: human gammaherpesvirus 4, Epstein-Barr primary assay, Akata strain, Akata cells
[17] = Cytotoxicity concurrent with EBV primary assay; details: human, Akata cells without virus induction

## Nc1nc2c(ncn2COCCO)c(=O)[nH]1 [Acyclovir, reference compound]
[1]
  EC50: 150 µM
HSV2 strain G
  EC50: 2.56 µM
HSV1 strain E-377
  EC50: 2.56 µM
VZV strain Ellen
  EC50: 5.59 µM
  EC90: 69.4 µM
[2]
  EC50: 16.8 µM

## Nc1nc(O)c2ncn(COC(CO)CO)c2n1 [Ganciclovir, ganciclovir, reference compound]
Murine CMV strain Smith [3]
  EC50: 7.4 µM
  EC90: 26 µM
[4]
  CC50: 20 µM
[5]
  CC50: 150 µM
Murine CMV strain Smith [6]
  EC50: 5.48 µM
  EC90: 24.9 µM
HCMV strain AD169 [7]
  EC50: 1.78 µM
  EC90: 5.67 µM
HCMV strain AD169 [8]
  EC90: 3.88 µM
MEF cells
  CC50: 84.8 μ.M

## Fc1ccc2c(c1)nn1cnc(NC3CCCOCC3)cc21 (stereo not drawn) [VKT-015]
[9]
  CC50: 39.7 µM
[10]; read-out: EC50
  EC50: 7.13 µM
[10]; read-out: EC90
  EC90: 10 µM
[11]
  CC50: 48.6 µM
[12]
  CC50: 50 µM
HSV2 strain G
  EC50: 50 µM
HSV2 strain G; read-out: EC90
  EC90: 50 µM
HSV1 strain E-377
  EC50: 50 µM
HSV1 strain E-377; read-out: EC90
  EC90: 50 µM
VZV strain Ellen
  EC50: 10 µM
  EC90: 10 µM
[13]
  CC50: 41.8 µM
[14]
  EC90: 17.5 µM
[5]
  CC50: 27.7 µM
[15]
  CC50: 50 µM
[16]; read-out: EC50
  EC50: 8.73 µM
[16]; read-out: EC90
  EC90: 29.9 µM
HCMV strain AD169 [7]
  EC50: 10 µM
  EC90: 10 µM
[17]
  CC50 at 72 h: 50 µM
